Source: US20070049564A1 (Wyeth, priority 2005, published 2007)
≈ marks a conversion by molar mass, not a printed value. Where two headings read alike, the source gives them in different places.

Experiments:
S. aureus GC 6466 = experiment: MIC, broth microdilution; conditions: Staphylococcus aureus
E. coli GC 3226 = experiment: MIC, broth microdilution; conditions: Escherichia coli
E. coli GC 2236 = experiment: MIC, broth microdilution; conditions: Escherichia coli
E. coli GC 2270 = experiment: MIC, broth microdilution; conditions: Escherichia coli
S. aureus GC 6335 = experiment: MIC, broth microdilution; conditions: Staphylococcus aureus
P. aeruginosa GC 2214 = experiment: MIC, broth microdilution; conditions: Pseudomonas aeruginosa
E. coli GC 2232 = experiment: MIC, broth microdilution; conditions: Escherichia coli
E. faecium GC 2243 = experiment: MIC, broth microdilution; conditions: Enterococcus faecium
E. coli GC 2234 = experiment: MIC, broth microdilution; conditions: Escherichia coli
E. coli GC 2203 = experiment: MIC, broth microdilution; conditions: Escherichia coli
E. coli = experiment: Range of MIC for E. coli strains; conditions: Escherichia coli
E. coli GC 2233 = experiment: MIC, broth microdilution; conditions: Escherichia coli
S. pyogenes GC 4563 = experiment: MIC, broth microdilution; conditions: Streptococcus pyogenes
E. coli GC 2271 = experiment: MIC, broth microdilution; conditions: Escherichia coli
S. aureus GC 6469 = experiment: MIC, broth microdilution; conditions: Staphylococcus aureus
E. faecium GC 4556 = experiment: MIC, broth microdilution; conditions: Enterococcus faecium
Staph. = experiment: Range of MIC for Staph. strains, including MRSA; conditions: Staphylococcus aureus, MRSA
E. coli GC 2231 = experiment: MIC, broth microdilution; conditions: Escherichia coli
E. faecalis GC 2265 = experiment: MIC, broth microdilution; conditions: Enterococcus faecalis
S. aureus GC 2216 = experiment: MIC, broth microdilution; conditions: Staphylococcus aureus

MIC (S. aureus GC 6466; GC6466, read-out: MINIMAL INHIBITORY CONCENTRATION MIC, pre-incubated in Mouse Serum): 0.5 µg/mL (≈ 0.62 µM)
MIC (S. aureus GC 6466; GC6466, read-out: MINIMAL INHIBITORY CONCENTRATION MIC, pre-incubated in Water): 4 µg/mL (≈ 4.96 µM)
MIC (E. coli GC 3226; GC3226, read-out: MINIMAL INHIBITORY CONCENTRATION MIC, pre-incubated in Mouse Serum): 0.5 µg/mL (≈ 0.62 µM)
MIC (E. coli GC 3226; GC3226, read-out: MINIMAL INHIBITORY CONCENTRATION MIC, pre-incubated in Water): > 64 µg/mL
MIC (E. coli GC 2236; GC2236, read-out: MINIMAL INHIBITORY CONCENTRATION MIC, pre-incubated in Mouse Serum): 0.5 µg/mL (≈ 0.62 µM)
MIC (E. coli GC 2236; GC2236, read-out: MINIMAL INHIBITORY CONCENTRATION MIC, pre-incubated in Water): > 64 µg/mL
MIC (E. coli GC 2270; GC2270, read-out: MINIMAL INHIBITORY CONCENTRATION MIC, pre-incubated in Mouse Serum): 0.5 µg/mL (≈ 0.62 µM)
MIC (E. coli GC 2270; GC2270, read-out: MINIMAL INHIBITORY CONCENTRATION MIC, pre-incubated in Water): > 64 µg/mL
MIC (S. aureus GC 6335; GC6335, read-out: MINIMAL INHIBITORY CONCENTRATION MIC, pre-incubated in Mouse Serum): 1 µg/mL (≈ 1.24 µM)
MIC (S. aureus GC 6335; GC6335, read-out: MINIMAL INHIBITORY CONCENTRATION MIC, pre-incubated in Water): 16 µg/mL (≈ 19.9 µM)
MIC (P. aeruginosa GC 2214; GC2214, read-out: MINIMAL INHIBITORY CONCENTRATION MIC, pre-incubated in Mouse Serum): 16 µg/mL (≈ 19.9 µM)
MIC (P. aeruginosa GC 2214; GC2214, read-out: MINIMAL INHIBITORY CONCENTRATION MIC, pre-incubated in Water): > 64 µg/mL
MIC (E. coli GC 2232; GC2232, read-out: MINIMAL INHIBITORY CONCENTRATION MIC, pre-incubated in Mouse Serum): 0.5 µg/mL (≈ 0.62 µM)
MIC (E. coli GC 2232; GC2232, read-out: MINIMAL INHIBITORY CONCENTRATION MIC, pre-incubated in Water): > 64 µg/mL
MIC (E. faecium GC 2243; GC2243, read-out: MINIMAL INHIBITORY CONCENTRATION MIC, pre-incubated in Mouse Serum): 0.25 µg/mL (≈ 0.31 µM)
MIC (E. faecium GC 2243; GC2243, read-out: MINIMAL INHIBITORY CONCENTRATION MIC, pre-incubated in Water): 0.25 µg/mL (≈ 0.31 µM)
MIC (E. coli GC 2234; GC2234, read-out: MINIMAL INHIBITORY CONCENTRATION MIC, pre-incubated in Mouse Serum): 0.25 µg/mL (≈ 0.31 µM)
MIC (E. coli GC 2234; GC2234, read-out: MINIMAL INHIBITORY CONCENTRATION MIC, pre-incubated in Water): > 64 µg/mL
MIC (E. coli GC 2203; GC2203, read-out: MINIMAL INHIBITORY CONCENTRATION MIC, pre-incubated in Mouse Serum): 0.5 µg/mL (≈ 0.62 µM)
MIC (E. coli GC 2203; GC2203, read-out: MINIMAL INHIBITORY CONCENTRATION MIC, pre-incubated in Water): > 64 µg/mL
MIC (E. coli; 20 h, read-out: Range of MIC, E. coli (Mouse Serum)): 0.25 to 1 µg/mL (≈ 0.31 to 1.24 µM)
MIC (E. coli; read-out: Range of MIC, E. coli (Water)): > 64 µg/mL
MIC (E. coli; read-out: Range of MIC, E. coli (mouse serum)): 0.25 to 1 µg/mL (≈ 0.31 to 1.24 µM)
MIC (E. coli; read-out: Range of MIC, E. coli (water)): > 64 µg/mL
MIC (E. coli GC 2233; GC2233, read-out: MINIMAL INHIBITORY CONCENTRATION MIC, pre-incubated in Mouse Serum): 0.5 µg/mL (≈ 0.62 µM)
MIC (E. coli GC 2233; GC2233, read-out: MINIMAL INHIBITORY CONCENTRATION MIC, pre-incubated in Water): > 64 µg/mL
MIC (S. pyogenes GC 4563; GC4563, read-out: MINIMAL INHIBITORY CONCENTRATION MIC, pre-incubated in Mouse Serum): < 0.06 µg/mL
MIC (S. pyogenes GC 4563; GC4563, read-out: MINIMAL INHIBITORY CONCENTRATION MIC, pre-incubated in Water): < 0.06 µg/mL
MIC (E. coli GC 2271; GC2271, read-out: MINIMAL INHIBITORY CONCENTRATION MIC, pre-incubated in Mouse Serum): 0.25 µg/mL (≈ 0.31 µM)
MIC (E. coli GC 2271; GC2271, read-out: MINIMAL INHIBITORY CONCENTRATION MIC, pre-incubated in Water): > 64 µg/mL
MIC (S. aureus GC 6469; GC6469, read-out: MINIMAL INHIBITORY CONCENTRATION MIC, pre-incubated in Mouse Serum): 4 µg/mL (≈ 4.96 µM)
MIC (S. aureus GC 6469; GC6469, read-out: MINIMAL INHIBITORY CONCENTRATION MIC, pre-incubated in Water): 64 µg/mL (≈ 79.4 µM)
MIC (E. faecium GC 4556; GC4556, read-out: MINIMAL INHIBITORY CONCENTRATION MIC, pre-incubated in Mouse Serum): 0.5 µg/mL (≈ 0.62 µM)
MIC (E. faecium GC 4556; GC4556, read-out: MINIMAL INHIBITORY CONCENTRATION MIC, pre-incubated in Water): 32 µg/mL (≈ 39.7 µM)
MIC (Staph.; read-out: Range of MIC, Staph (Mouse Serum)): 0.5 to 4 µg/mL (≈ 0.62 to 4.96 µM)
MIC (Staph.; read-out: Range of MIC, Staph (Water)): 4 to 64 µg/mL (≈ 4.96 to 79.4 µM)
MIC (Staph.; read-out: Range of MIC, Staph. (mouse serum)): 0.5 to 4 µg/mL (≈ 0.62 to 4.96 µM)
MIC (Staph.; read-out: Range of MIC, Staph. (water)): 4 to 64 µg/mL (≈ 4.96 to 79.4 µM)
MIC (E. coli GC 2231; GC2231, read-out: MINIMAL INHIBITORY CONCENTRATION MIC, pre-incubated in Mouse Serum): 1 µg/mL (≈ 1.24 µM)
MIC (E. coli GC 2231; GC2231, read-out: MINIMAL INHIBITORY CONCENTRATION MIC, pre-incubated in Water): > 64 µg/mL
MIC (E. faecalis GC 2265; GC2265, read-out: MINIMAL INHIBITORY CONCENTRATION MIC, pre-incubated in Mouse Serum): 2 µg/mL (≈ 2.48 µM)
MIC (E. faecalis GC 2265; GC2265, read-out: MINIMAL INHIBITORY CONCENTRATION MIC, pre-incubated in Water): 64 µg/mL (≈ 79.4 µM)
MIC (S. aureus GC 2216; GC2216, read-out: MINIMAL INHIBITORY CONCENTRATION MIC, pre-incubated in Mouse Serum): 0.5 µg/mL (≈ 0.62 µM)
MIC (S. aureus GC 2216; GC2216, read-out: MINIMAL INHIBITORY CONCENTRATION MIC, pre-incubated in Water): 32 µg/mL (≈ 39.7 µM)
SMILES: CCCN(CC(=O)Nc1cc(N(C)C)c2c(c1O)C(=O)C1=C(O)[C@]3(O)C(=O)C(C(N)=O)=C(O)[C@@H](N(C)C)[C@@H]3C[C@@H]1C2)C(=O)OCOC(=O)c1ccc(C(C)(C)C)cc1 [Example 28, ({[(2-{[(5aR,6aS,7S,10aS)-9-(aminocarbonyl)-4,7-bis(dimethylamino)-1,8,10a,11-tetrahydroxy-10,12-dioxo-5,5a,6,6a,7,10,10a,12-octahydrotetracen-2-yl]amino}-2-oxoethyl)(propyl)amino]carbonyl}oxy)methyl 4-tert-butylbenzoate]
